Experimental data: patent US11492347B2 (ENYO PHARMA, priority 2018, dated 2022)

Tests used:
[1] = system: H1N1 (influenza A/New Caledonia/20/99); test: microbe, parasite or virus in culture; type: cell-based; settings: H1N1, A549, 48 h
[2] = system: West Nile Virus; test: Antiviral effect in infected Huh7 cells, plaque assay on VeroE6; type: cell-based, WNV stain New-York 99; settings: Huh-7, MOI of 0,1 pfu per cell, supernatants 48 h post infection
Procedure: Compound #18 was tested on other viruses. The NEET protein modulators are capable of inhibiting other viruses such as West Nile Virus, Dengue and Zika with a high efficiency.
Assays were performed with the following strains/serotypes: • DENV serotype 2 strain New Guinea C • ZIKV strain MR766 • WNV stain New-York 99
1×10^5 Huh7 cells were infected with DENV, ZIKV, or WNV at a MOI of 0,1 pfu per cell in presence of the test compound. Two hours post-infection the inoculum was removed and cells washed twice with PBS 1×. Fresh medium containing the test compound was added. Supernatants were harvested 48 h post infection, filtered through a 0.45 μm pore membrane and directly used for plaque assays.
VeroE6 cells were infected with serial dilutions of virus supernatants. Two hours post-infection inoculum was replaced by serum-free MEM medium (Gibco, Life Technologies) containing 1.5% carboxymethyl cellulose (Sigma-Aldrich). At different days post infection (day 3 for WNV, day 4 for ZIKV, day 7 for DENV) cells were fixed by addition of formaldehyde to a final concentration of 5%. Cells were stained with crystal violet solution (1% crystal violet, 10% ethanol in H2O) for 30 min at room temperature and extensively rinsed with H2O. Infectious titers were calculated considering the corresponding dilution factor.

[3] = system: Dengue; test: microbe, parasite or virus in culture; type: cell-based, DENV serotype 2 strain New Guinea C; settings: Huh-7, 48 h
[4] = system: Zika; test: Antiviral effect in infected Huh7 cells, plaque assay on VeroE6; type: cell-based, ZIKV strain MR766; settings: Zika virus, Huh-7, MOI of 0,1 pfu per cell, supernatants 48 h post infection
[5] = target: T1, CISD1 Gene Product (mitoNEET) (Homo sapiens, UniProt Q9NZ45); test: Stability of Fe-S cluster binding of purified NEET protein (absorbance 458 nm); type: biochemical
T1 sequence (Q9NZ45 33-108 limits assumed): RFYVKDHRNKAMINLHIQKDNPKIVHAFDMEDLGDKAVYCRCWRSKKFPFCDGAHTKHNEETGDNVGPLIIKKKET
Procedure: (§1) The modulator effect on the NEET proteins encoded by human CISD1, CISD2, and CISD3 genes by the compounds of the invention has been tested and is reported below. Particularly, the biochemical function of the NEET proteins is measured by the stability of Fe—S cluster binding of the purified NEET proteins.
(§2) The Fe—S cluster binding capacity of NEET proteins is known to be coordinated by four amino-acids in a stretch of 16 (three Cysteine and one Histidine). As the lability of the Fe—S cluster of NEET proteins is sensitive to the environment, cluster stability measurements are one of the measures of interactions of NEET proteins with small molecules and compounds. NEET protein/2Fe-2S cluster stability can be assessed by monitoring the decay in absorbance of its characteristic 458-nm peak (characteristic of the oxidized 2Fe-2S cluster) over time. Each NEET protein (mitoNEET, NAF-1 and Miner 2) was tested for its Fe—S binding in the absence or presence of a compound according to the invention (see table 4 below). The rate of cluster release (time in minutes to achieve 50% loss of bound Fe—S cluster) was compared for each NEET protein in the presence of one of the compounds of the invention (in a 1:3 protein:compound molar ratio) relative to each protein alone.
(§3) At pH 6, all the three NEET proteins (mitoNEET, NAF-1 and Miner 2) have a characteristic rate of loss of the bound Fe—S cluster that can be measured by the decrease of absorbance at wavelength 458 nm over time, using a spectrophotometer. Thus, Bis-Tris buffer (100 mM Bis-Tris pH6, 100 mM Nacl) was used at pH 6 to dilute either DMSO (Blank sample: Bis-Tris Buffer pH 6, 66 μM DMSO), DMSO and one of the three NEET proteins (Control sample: Bis-Tris Buffer pH 6, 66 μM DMSO, 20 μM purified NEET protein) or DMSO, one of the three NEET proteins and a compound of the invention (Test sample: Bis-Tris Buffer pH 6, 66 μM DMSO, 20 μM purified NEET protein, 60 μM compound of the invention).
(§4) A reaction mix containing DMSO diluted in the Bis-Tris Buffer with or without a compound of the invention was prepared. The purified NEET protein was the last component added to the reaction mix which was then aliquoted into 4 replicates in 96 wells plates. The absorbance at wavelength 458 nm was taken at 5 minutes intervals at 37° C. with a spectrofluorimeter. The assay run time for CISD2 gene product (NAF-1) was 500 minutes and 180 minutes for both the CISD1gene product (mitoNEET) and the CISD3 gene product (Miner2).
(§5) In addition to time monitoring, residual bound Fe—S cluster to NEET protein was measured at the final point of the spectrometry assay for each Test sample and compared to the Control sample data (in parenthesis table 4). This residual binding is measured by the differential percentage between the absorbance 458 nm at time zero and the absorbance 458 nm at the end of the experiment (i.e. respectively 500 or 180 minutes as described here above), showing the percentage of NEET protein still able to bind a Fe—S cluster.
(§6) Analysis of the absorbance enables the time for which 50% loss of bound Fe—S cluster is reached (i.e. a 50% absorbance decrease at 458 nm) for each Test sample and each Control sample (in parenthesis table 4) to be determined. The data are then compared to determine whether the compound of the invention stabilizes or destabilizes the NEET protein/Fe—S cluster binding.

[6] = target: T2, CISD2 Gene Product (NAF-1) (Homo sapiens, UniProt Q8N5K1); test: as above; type: biochemical; settings: NAF-1 20 μM, compound 60 μM
T2 sequence (Q8N5K1 57-135 limits assumed): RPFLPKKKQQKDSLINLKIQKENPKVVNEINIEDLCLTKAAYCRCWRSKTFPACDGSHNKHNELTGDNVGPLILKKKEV
Procedure: as §1, §2, §3, §4, §5, §6

[7] = target: T3, CISD3 Gene Product (Miner2) (Homo sapiens, UniProt P0C7P0); test: as above; type: biochemical
T3 sequence (P0C7P0 15-127): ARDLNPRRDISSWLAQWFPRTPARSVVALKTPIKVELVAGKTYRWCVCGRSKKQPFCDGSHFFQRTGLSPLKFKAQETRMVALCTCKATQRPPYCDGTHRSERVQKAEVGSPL
Procedure: as §1, §2, §3, §4, §5, §6

[8] = time to 50% cluster loss changed by more than 25% compared to the Control sample, at the concentrations tested

**Q.** What does the source list for `COc1ccc(C(=O)Nc2sc3c(c2C(=O)O)CCC(C)(C)C3)cc1OC` [Compound #18, 2-[(3,4-Dimethoxybenzoyl)amino]-6,6-dimethyl-5,7-dihydro-4H-benzothiophene-3-carboxylic acid]?
**A.** IC50 [1]: 50 nM; IC50 [2]: 2500 nM; IC50 [3]: 5000 nM; IC50 [4]: 3000 nM; Residual cluster bound at end of experiment (Percentage Absorbance 458 nm at time zero) ([5]; mitoNEET 20 μM, compound 60 μM, pH 6, at 180 minutes, vehicle control 16%): 62% (16%); Stabiliser or destabiliser of Fe-S cluster binding by CISD1 Gene Product (mitoNEET) [5, 8]: stabilisers; Time (in minutes) to achieve 50% loss of bound cluster (Absorbance 458 nm) ([6]; pH 6, 37° C., run time 500 minutes, vehicle control 310 or 210): 425 (310) minutes; Residual cluster bound at end of experiment (Percentage Absorbance 458 nm at time zero) ([6]; pH 6, at 500 minutes, vehicle control 3%): 42% (3%); Residual cluster bound at end of experiment (Percentage Absorbance 458 nm at time zero) ([7]; CISD3 gene product 20 μM, compound 60 μM, pH 6, at 180 minutes, vehicle control 11%): 70% (11%); Stabiliser or destabiliser of Fe-S cluster binding by CISD3 Gene Product (Miner2) [7, 8]: Stabilisers
